From PubChem BioAssay (NCI)
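1) Cells in 96-well plates. 2) Compound, 48 h, 5 concentrations. 3) Linear interpolation between surrounding doses. 4) Unreached endpoint = highest concentration. GI50 = concentration required for 50% inhibition of growth. TGI: concentration producing complete growth inhibition.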

Tests used:
Assay in all cases: NCI anticancer screen, dose series, 48 h
[1] = test system: OVCAR-5 ovarian
[2] = test system: CAKI-1 renal
[3] = test system: PC-3 prostate
[4] = test system: MCF7 breast
[5] = test system: SR leukemia
[6] = test system: HOP-92 NSCLC
[7] = test system: K-562 leukemia
[8] = test system: HCC-2998 colon
[9] = test system: IGROV1 ovarian
[10] = test system: NCI-H460 lung
[11] = test system: SK-MEL-28 melanoma
[12] = test system: NCI-H226 lung
[13] = test system: KM12 colon
[14] = test system: U251 CNS
[15] = test system: MDA-MB-231 breast
[16] = test system: OVCAR-3 ovarian
[17] = test system: SK-MEL-5 melanoma
[18] = test system: MALME-3M melanoma
[19] = test system: NCI-H23 lung
[20] = test system: A549 NSCLC
[21] = test system: SK-OV-3 ovarian
[22] = test system: COLO 205 colon
[23] = test system: A498 renal
[24] = test system: UACC-62 melanoma
[25] = test system: UO-31 renal
[26] = test system: T-47D breast
[27] = test system: OVCAR-4 ovarian
[28] = test system: TK-10 renal
[29] = test system: MOLT-4 leukemia
[30] = test system: CCRF-CEM leukemia
[31] = test system: ACHN renal
[32] = test system: HOP-62 NSCLC
[33] = test system: M14 melanoma
[34] = test system: RPMI-8226 leukemia
[35] = test system: 786-0 renal
[36] = test system: EKVX NSCLC
[37] = test system: LOX IMVI melanoma
[38] = test system: MDA-MB-435
[39] = test system: SK-MEL-2 melanoma
[40] = test system: RXF 393 renal
[41] = test system: HCT-116 colon
[42] = test system: SW-620 colon
[43] = test system: HL-60(TB) leukemia
[44] = test system: HCT-15 colon
[45] = test system: NCI-H522 lung
[46] = test system: UACC-257 melanoma
[47] = test system: SF-539 CNS
[48] = test system: SN12C renal
[49] = test system: OVCAR-8 ovarian
[50] = test system: HT29 colon
[51] = test system: BT-549 breast
[52] = test system: SNB-19 CNS
[53] = test system: HS 578T breast
[54] = test system: SF-268 CNS
[55] = test system: SNB-75 CNS
[56] = test system: NCI/ADR-RES ovarian
[57] = test system: DU-145 prostate
[58] = test system: SF-295 CNS

CCOc1cccc(/C=N/NC(=O)c2cccc(Nc3ccnc(C(F)(F)F)c3)c2)c1O
GI50 [1]: 2.33 µM | TGI [1]: 60.7 µM | GI50 [2]: 0.772 µM | TGI [2]: 32 µM | GI50 [3]: 3.28 µM | TGI [3]: > 92.8 µM | GI50 [4]: 0.945 µM | TGI [4]: 21.1 µM | GI50 [5]: 0.212 µM | TGI [5]: 8.67 µM | GI50 [6]: 5.21 µM | TGI [6]: > 100 µM | GI50 [7]: 1.32 µM | TGI [7]: 30.6 µM | GI50 [8]: 1.45 µM | TGI [8]: > 100 µM | GI50 [9]: 0.852 µM | TGI [9]: > 52.6 µM | GI50 [10]: 1.17 µM | TGI [10]: 9.53 µM | GI50 [11]: 2.31 µM | TGI [11]: 36.6 µM | GI50 [12]: 0.827 µM | TGI [12]: 9.82 µM | GI50 [13]: 1.48 µM | TGI [13]: 17.6 µM | GI50 [14]: 0.886 µM | TGI [14]: > 47.1 µM | GI50 [15]: 0.888 µM | TGI [15]: > 91.1 µM | GI50 [16]: 0.401 µM | TGI [16]: 24.4 µM | GI50 [17]: 0.676 µM | TGI [17]: 7.84 µM | GI50 [18]: 1.82 µM | TGI [18]: 18.9 µM | GI50 [19]: 1.62 µM | TGI [19]: 20.8 µM | GI50 [20]: 3.73 µM | TGI [20]: > 100 µM | GI50 [21]: 0.796 µM | TGI [21]: 33.1 µM | GI50 [22]: 0.532 µM | TGI [22]: 18.4 µM | GI50 [23]: 15 µM | TGI [23]: > 76.9 µM | GI50 [24]: 0.551 µM | TGI [24]: 11.7 µM | GI50 [25]: 0.717 µM | TGI [25]: 26.2 µM | GI50 [26]: 0.814 µM | TGI [26]: 19 µM | GI50 [27]: 0.723 µM | TGI [27]: 48.6 µM | GI50 [28]: 1.57 µM | TGI [28]: 83.1 µM | GI50 [29]: 0.232 µM | TGI [29]: 2.08 µM | GI50 [30]: 0.18 µM | TGI [30]: > 100 µM | GI50 [31]: 0.699 µM | TGI [31]: > 50.3 µM | GI50 [32]: 0.682 µM | TGI [32]: 15.3 µM | GI50 [33]: 1.22 µM | TGI [33]: 7.88 µM | GI50 [34]: 2.16 µM | TGI [34]: > 100 µM | GI50 [35]: 1.18 µM | TGI [35]: > 20.7 µM | GI50 [36]: 1.55 µM | TGI [36]: > 64.5 µM | GI50 [37]: 0.473 µM | TGI [37]: > 26.6 µM | GI50 [38]: 3.1 µM | TGI [38]: > 51.2 µM | GI50 [39]: 8.5 µM | TGI [39]: 39.9 µM | GI50 [40]: 1.66 µM | TGI [40]: 44.6 µM | GI50 [41]: 0.477 µM | TGI [41]: > 69.4 µM | GI50 [42]: 3.04 µM | TGI [42]: > 88.7 µM | GI50 [43]: 0.262 µM | TGI [43]: 1.01 µM | GI50 [44]: 1.1 µM | TGI [44]: > 100 µM | GI50 [45]: 4.54 µM | TGI [45]: 32.5 µM | GI50 [46]: 3.09 µM | TGI [46]: 24 µM | GI50 [47]: 1.32 µM | TGI [47]: 10.6 µM | GI50 [48]: 1.66 µM | TGI [48]: > 70.7 µM | GI50 [49]: 1.12 µM | TGI [49]: 37 µM | GI50 [50]: 5.34 µM | TGI [50]: > 82.7 µM | GI50 [51]: 1.44 µM | TGI [51]: 36.5 µM | GI50 [52]: 1.63 µM | TGI [52]: > 100 µM | GI50 [53]: 5.53 µM | TGI [53]: 72.7 µM | GI50 [54]: 0.873 µM | TGI [54]: > 45.3 µM | GI50 [55]: 11.2 µM | TGI [55]: 39.2 µM | GI50 [56]: 3.02 µM | TGI [56]: 27.8 µM | GI50 [57]: 1.1 µM | TGI [57]: > 47.3 µM | GI50 [58]: 2.4 µM | TGI [58]: 27.9 µM
